Six compounds from ChEMBL document CHEMBL1129054, “Conformationally constrained analogues of diacylglycerol. 13. Protein kinase C ligands based on templates derived from 2,3-dideoxy-L-erythro(threo)-hexono-1,4-lactone and 2-deoxyapiolactone” (J Med Chem, 1996) can be followed below.

Structures are written as SMILES.

The assay addresses Protein kinase C alpha type (Homo sapiens, UniProt P17252). The experiment in a line: Displacement of [3H-20] phorbol 12,13-dibutyrate(PDBU) from recombinant Protein kinase C alpha. Background: Displacement assays read how much labelled ligand stays bound in the presence of the test substance.

`CCCCCCCCCCCCCCOC(=O)C[C@@]1(CCO)COC(=O)C1`: the Ki amounted to 18.4 µM. As for `CCCCCCCCCCCCCCOC(=O)C[C@@]1(CO)COC(=O)C1`, the Ki was determined as 16.9 µM. With `CCCCCCCCCCCCCCOC(=O)C[C@]1(CCO)COC(=O)C1`, the Ki was found to be 10.4 µM. As to `CCCCCCCCCCCCCC(=O)O[C@@H](CO)[C@@H]1CCC(=O)O1`, the Ki is 1.07 µM.

Consider `CCCCCCCCCCCCCCOC(=O)CC1(CCO)COC(=O)C1` (single isomer, unassigned), for which the inhibition constant (Ki) was 24.1 µM. Then `CCCCCCCCCCCCCC(=O)O[C@@H](CO)[C@H]1CCC(=O)O1`, with 28 µM.

Usually Ki stands for the equilibrium dissociation constant of an inhibitor or competing ligand from its target.
